According to patent publication US11401264B2, “Heterocyclic compound” (Orizuru Therapeutics, Inc., priority 2018, dated 2022):

Test system: cardiomyocytes from double knock-in human iPS cell lines (mCherry at TNNI3 locus)
Experiment: Experimental Example 1: mCherry (TNNI3 reporter) immunostaining measured by high contents screening
Assay type: cell-based
Parameters: key to average fluorescent intensity (at 30 μM): —: The symbol in Table 2 means that the average fluorescent intensity cannot be evaluated due to cell decrease
Settings: read on 8th day, Alexa 647 anti-mCherry, control well 797; for average fluorescent intensity (at 1 μM): test compound 1 μM added on 3rd and 6th culture days; for average fluorescent intensity (at 30 μM): test compound 30 μM added on 3rd and 6th culture days
Experimental: For detection of cardiomyocyte maturation, double knock-in human iPS cell lines, in which reporter protein sequences, EmGFP (Sequence Number 1) and mCherry (Sequence Number 2) were inserted into gene loci for TNNI1 and TNNI3, respectively, were prepared (the human iPS cells were prepared from episomal vector (loaded gene; OCT3/4, KLF4, SOX2, L-MYC, LIN28, mouse p53DD) using PBMC (LP_167, Sample ID: 20130318) purchased from CTL (reference literature; Okita K, et al. Stem Cells. 2012 Nov. 29. doi: 10.1002/stem.1293)).
The maintenance culture of the above-mentioned reporter iPS cell lines was carried out by a conventional method (Okita K, et al. Stem Cells. 2012 Nov. 29. doi: 10.1002/stem.1293).
For differentiation induction into cardiomyocytes, the reporter iPS cell lines were treated with 0.5×TrypLE select (Life Technologies, diluted in 1/2 with 0.5 mM EDTA/PBS) for 4 to 5 minutes, and the cells were exfoliated using a cell scraper (IWAKI), and then dissociated into the single cell by pipetting. The medium was removed by centrifugation (1,000 rpm, 5 min), and the obtained cells were seeded on a bioreactor (ABLE) by 1×10^7 cells per 30 mL of the bioreactor, and then cultured in a medium prepared by adding 1% L-glutamine, transferrin 150 μg/mL, ascorbic acid 50 μg/mL (Sigma), monothioglycerol 4×10^−4 M, 10 μM Rock inhibitor (Y-27632), 2 ng/mL BMP4 (R&D) and 0.5% Matrigel (Growth Factor Reduced) to a medium after removal of solution C from StemFit AK02 (AJINOMOTO AK02, 400 mL of solution A and 100 mL of B solution, total 500 mL), at 37° C., under 5% oxygen condition (55 rpm, stirred suspension culture method) to form embryoid bodies (0 day).
Next day (1st day), 9 μL (final concentration 3 ng/mL) of 10 μg/mL activin A, 15 μL (final concentration 5 ng/mL) of 10 μg/mL bFGF and […] (final concentration 10 ng/mL) of 10 μg/mL BMP4 were added to the bioreactor, and the cells were cultured at 37° C. for additional 2 days, under 5% oxygen condition.
Then (3rd day), the obtained embryoid bodies were collected in a 50 mL centrifuge tube, and then subjected to centrifugation (200 g, 1 min). The medium was removed, and the embryoid bodies were cultured in a medium prepared by adding 1% L-glutamine, transferrin 150 μg/mL, ascorbic acid 50 μg/mL (Sigma), monothioglycerol 4×10^−4 M, 10 ng/mL VEGF, 1 μM IWP-3, 0.6 μM dorsomorphin and 5.4 μM SB431542 to a medium after removal of solution C from StemFit AK02 (AJINOMOTO AK02, 400 mL of solution A and 100 mL of B solution, total 500 mL), at 37° C. for 3 days, under 5% oxygen condition (55 rpm, stirred suspension culture method).
Then (6th day), the bioreactor was left to stand to precipitate the embryoid bodies, and 80 to 90% of the medium was removed. A medium prepared by adding 1% L-glutamine, transferrin 150 μg/mL, ascorbic acid 50 μg/mL (Sigma), monothioglycerol […] and 5 ng/mL VEGF to a medium after removal of solution C from StemFit AK02 (AJINOMOTO AK02, 400 mL of solution A and 100 mL of B solution, total 500 mL) was added to the bioreactor so that the total volume became 30 mL, and the embryoid bodies were cultured for 8 days, at 37° C., under 5% oxygen condition (55 rpm, stirred suspension culture method). During the culture, the medium was replaced with a medium under the same conditions every 2 to 3 days.
14th Day after the start of the differentiation induction, the embryoid bodies were treated with 2 mg/mL collagenase type I (Sigma) for 2 hr, and then with 0.25% trypsin/EDTA (Invitrogen) for 10 min. 50% FBS/IMDM (Thermo Fisher Science) was added thereto, and the embryoid bodies were dissociated into the single cell by pipetting, and then subjected to centrifugation (1,000 rpm, 5 minutes). […]

| Compound | average fluorescent intensity (at 1 μM) | average fluorescent intensity (at 30 μM) |
| --- | --- | --- |
| Cc1cccc(NC(=O)COc2ccc(-c3nc4cc(N5Cc6cc(N7CCCCC7)ccc6C5=O)ccc4[nH]3)cc2)c1 [Example 23, N-(3-methylphenyl)-2-(4-(5-(1-oxo-5-(piperidin-1-yl)-1,3-dihydro-2H-isoindol-2-yl)-1H-benzimidazol-2-yl)phenoxy)acetamide] | 1386 |  |
| O=C(COc1ccc(-c2nc3cc(N4Cc5cc(N6CCCCC6)ccc5C4=O)ccc3[nH]2)cc1)NCCCc1ccccc1 [Example 24, 2-(4-(5-(1-oxo-5-(piperidin-1-yl)-1,3-dihydro-2H-isoindol-2-yl)-1H-benzimidazol-2-yl)phenoxy)-N-(3-phenylpropyl)acetamide] | 1241 | — |
| O=C(COc1ccc(-c2nc3cc(N4Cc5cc(N6CCCCC6)ccc5C4=O)ccc3[nH]2)cc1)NC1CC1 [Example 25, N-cyclopropyl-2-(4-(5-(1-oxo-5-(piperidin-1-yl)-1,3-dihydro-2H-isoindol-2-yl)-1H-benzimidazol-2-yl)phenoxy)acetamide] | 1260 | 900 |
| CC(C)CNC(=O)COc1ccc(-c2nc3cc(N4Cc5cc(N6CCCCC6)ccc5C4=O)ccc3[nH]2)cc1 [Example 26, N-isobutyl-2-(4-(5-(1-oxo-5-(piperidin-1-yl)-1,3-dihydro-2H-isoindol-2-yl)-1H-benzimidazol-2-yl)phenoxy)acetamide] | 1809 | — |
| O=C(COc1ccc(-c2nc3cc(N4Cc5cc(N6CCCCC6)ccc5C4=O)ccc3[nH]2)cc1)NCC1CC1 [Example 27, N-(cyclopropylmethyl)-2-(4-(5-(1-oxo-5-(piperidin-1-yl)-1,3-dihydro-2H-isoindol-2-yl)-1H-benzimidazol-2-yl)phenoxy)acetamide] | 1821 | — |
| CCCNC(=O)COc1ccc(-c2nc3cc(N4Cc5cc(N6CCCCC6)ccc5C4=O)ccc3[nH]2)cc1 [Example 28, 2-(4-(5-(1-oxo-5-(piperidin-1-yl)-1,3-dihydro-2H-isoindol-2-yl)-1H-benzimidazol-2-yl)phenoxy)-N-propylacetamide] | 1540 | — |
| CC(C)NC(=O)COc1ccc(-c2nc3cc(N4Cc5cc(N6CCOCC6)ccc5C4=O)ccc3[nH]2)cc1 [Example 29, N-isopropyl-2-(4-(5-(5-(morpholin-4-yl)-1-oxo-1,3-dihydro-2H-isoindol-2-yl)-1H-benzimidazol-2-yl)phenoxy)acetamide] | 1120 | 910 |
| O=C(COc1ccc(-c2nc3cc(N4Cc5cc(N6CCOCC6)ccc5C4=O)ccc3[nH]2)cc1)NCC1CCOCC1 [Example 30, 2-(4-(5-(5-(morpholin-4-yl)-1-oxo-1,3-dihydro-2H-isoindol-2-yl)-1H-benzimidazol-2-yl)phenoxy)-N-(tetrahydro-2H-pyran-4-ylmethyl)acetamide] | 1005 | 876 |
| O=C(COc1ccc(-c2nc3cc(N4Cc5cc(N6CCOCC6)ccc5C4=O)ccc3[nH]2)cc1)NC1CCOCC1 [Example 31, 2-(4-(5-(5-(morpholin-4-yl)-1-oxo-1,3-dihydro-2H-isoindol-2-yl)-1H-benzimidazol-2-yl)phenoxy)-N-(tetrahydro-2H-pyran-4-yl)acetamide] | 736 | 888 |
| O=C(COc1ccc(-c2nc3cc(N4Cc5cc(N6CCOCC6)ccc5C4=O)ccc3[nH]2)cc1)N1CCOCC1 [Example 32, 5-(morpholin-4-yl)-2-(2-(4-(2-(morpholin-4-yl)-2-oxoethoxy)phenyl)-1H-benzimidazol-5-yl)isoindolin-1-one] | 1312 | 1937 |
| O=C(COc1ccc(-c2nc3cc(N4Cc5cc(N6CCOCC6)ccc5C4=O)ccc3[nH]2)cc1)N1CCCCC1 [Example 33, 5-(morpholin-4-yl)-2-(2-(4-(2-oxo-2-(piperidin-1-yl)ethoxy)phenyl)-1H-benzimidazol-5-yl)isoindolin-1-one] | 1568 | 3010 |
| O=C(COc1ccc(-c2nc3cc(N4Cc5cc(N6CCOCC6)ccc5C4=O)ccc3[nH]2)cc1)N1CCCC1 [Example 34, 5-(morpholin-4-yl)-2-(2-(4-(2-oxo-2-(pyrrolidin-1-yl)ethoxy)phenyl)-1H-benzimidazol-5-yl)isoindolin-1-one] | 1540 | — |
| O=C(COc1ccc(-c2nc3cc(N4Cc5cc(N6CCOCC6)ccc5C4=O)ccc3[nH]2)cc1)Nc1ccncc1 [Example 35, 2-(4-(5-(5-(morpholin-4-yl)-1-oxo-1,3-dihydro-2H-isoindol-2-yl)-1H-benzimidazol-2-yl)phenoxy)-N-(pyridin-4-yl)acetamide] | 1536 | 1204 |
| O=C(COc1ccc(-c2nc3cc(N4Cc5cc(N6CCOCC6)ccc5C4=O)ccc3[nH]2)cc1)NCc1ccccc1 [Example 36, N-benzyl-2-(4-(5-(5-(morpholin-4-yl)-1-oxo-1,3-dihydro-2H-isoindol-2-yl)-1H-benzimidazol-2-yl)phenoxy)acetamide] | 1006 | 1743 |
| O=C(COc1ccc(-c2nc3cc(N4Cc5cc(N6CCOCC6)ccc5C4=O)ccc3[nH]2)cc1)Nc1ccccc1 [Example 37, 2-(4-(5-(5-(rnorpholin-4-yl)-1-oxo-1,3-dihydro-2H-isoindol-2-yl)-1H-benzimidazol-2-yl)phenoxy)-N-phenylacetamide] | 1696 | 1290 |
| CN(C)C(=O)COc1ccc(-c2nc3cc(N4Cc5cc(N6CCOCC6)ccc5C4=O)ccc3[nH]2)cc1 [Example 38, N,N-dimethyl-2-(4-(5-(5-(morpholin-4-yl)-1-oxo-1,3-dihydro-2H-isoindol-2-yl)-1H-benzimidazol-2-yl)phenoxy)acetamide] | 1633 | — |
| O=C1c2ccc(N3CCCCC3)cc2CN1c1ccc2[nH]c(C3CCNCC3)nc2c1 [Example 39, 5-(piperidin-1-yl)-2-(2-(piperidin-4-yl)-1H-benzimidazol-5-yl)isoindolin-1-one] | 1042 | 1026 |
| O=C1c2ccc(N3CCCCC3)cc2CN1c1ccc2[nH]c(-c3ccno3)nc2c1 [Example 40, 2-(2-(1,2-oxazol-5-yl)-1H-benzimidazol-5-yl)-5-(piperidin-1-yl)isoindolin-1-one] | 1089 | 1327 |
| O=C1c2ccc(N3CCCCC3)cc2CN1c1ccc2[nH]c(-c3cccs3)nc2c1 [Example 41, 5-(piperidin-1-yl)-2-(2-(2-thienyl)-1H-benzimidazol-5-yl)isoindolin-1-one] | 1107 | 1571 |
